Test results as given in patent US20220380341A1, “INHIBITORS OF HIV-1 NEF FOR THE TREATMENT OF HIV DISEASE” (priority 2018, published 2022).
Read-outs that look alike come from different tables or passages of the source.

Key:
TZM-bl cell line = type: cell-based; conditions: for % Cell Viability: 1.0 μM, uninfected TZM-bl, CellTiter-Blue, Table 4
Description: (§1) In particular, the tables show antiretroviral activity as percent inhibition of HIV-1 infectivity at 1 μM. In brief, this assay uses the TZM-bl reporter cell line, which carries a stable copy of the HIV-1 LTR coupled to luciferase. Cells are infected with HIV-1NL4-3 in the presence and absence of each compound, and luciferase activity is measured 48 h later. This assay measures early events in the HIV-1 life cycle, including viral entry, reverse transcription, nuclear entry and integration, and viral transcription. All assays include control cells infected with Nef-defective HIV-1, which replicates at 30-50% of wild-type in this system. Results are normalized to percent inhibition relative to DMSO-treated control cells infected with wild-type HIV-1 (0% inhibition) and DMSO-treated cells infected with Nef-defective HIV-1 (100% of the Nef-dependent effect)—see column 3. In addition, cell viability is measured in the TZM-bl cell line in the presence of each test compound and in the absence of HIV-1 infection, using the Cell Titer Blue cell viability assay (Promega; column 4).

HIV-1 NefNL4-3 = HIV-1 NefNL4-3 (Human immunodeficiency virus type 1 group M subtype B, UniProt P03406, A33V/T15A/T51N/V11I); test: Surface plasmon resonance binding to recombinant full-length Nef (NL4-3)
HIV-1NL4-3 = test: HIV-1 infectivity assay in TZM-bl reporter cell line (LTR-luciferase, 48 h); type: cell-based; conditions: Table 1, TZM-bl cells, 1 μM, 48 h, 100% = Nef-defective HIV-1; for inhibition at 1 µM: Human immunodeficiency virus 1, TZM-bl, read-out: HIV-1 Infectivity % Inhibition Norm. to Δ-Nef @ 1 μM
Description: as §1

[1] = Table 1, uninfected TZM-bl cells, 1 μM, Cell Titer Blue
[2] = Table 1, 1:1 Langmuir fit where the KD2 cell says '1 to 1 fitting', else 2-site fit
[3] = Nef NL4-3 Binding, SPR 1:1 or 2-site fitting KD2, Table 1, 2-site fit, second component
[4] = read-out: Nef NL4-3 Binding, SPR 1:1 or 2-site fitting KD2, Table 1, 2-site fit, second component
[5] = Table 1, 2-step induced-fit model, read-out: Nef NL4-3 Binding, SPR 2-state fitting KD
[6] = read-out: Nef NL4-3 Binding, SPR 1:1 or 2-site fitting KD1
[7] = Table 2, uninfected TZM-bl cells, 1 μM, Cell Titer Blue

## 1-(1H-1,3-benzodiazol-2-yl)-4-[2-(4-fluorophenyl)ethyl]-3-(1-{[2-(1H-pyrrol-1-yl)phenyl]methyl}piperidin-4-yl)-1H-pyrazol-5-ol [Compound I-805]
TZM-bl cell line; [1]
  Percent Viability @ 1 μM (TZM-bl cells): 93.7%
HIV-1 NefNL4-3; Table 1, 1:1 Langmuir fit where the KD2 cell says '1 to 1 fitting', else 2-site fit, read-out: Nef NL4-3 Binding, SPR 1:1 or 2-site fitting KD1
  Kd: 596 nM
HIV-1NL4-3
  HIV-1 Infectivity % Inhibition Norm. to Δ-Nef @ 1 μM: 33.9%

## 2-{4-[1-(1H-1,3-benzodiazol-2-yl)-4-[2-(4-fluorophenyl)ethyl]-5-hydroxy-1H-pyrazol-3-yl]piperidine-1-carbonyl}benzene-1,3,5-triol [Compound I-729]
TZM-bl cell line; [1]
  Percent Viability @ 1 μM (TZM-bl cells): 102.4%
HIV-1 NefNL4-3; [2]
  Nef NL4-3 Binding, SPR 1:1 or 2-site fitting KD1: No Interaction
HIV-1NL4-3
  HIV-1 Infectivity % Inhibition Norm. to Δ-Nef @ 1 μM: 57.2%

## Oc1c(CCc2ccc(F)cc2)c(-c2cnccn2)nn1-c1nc2ccccc2[nH]1 [Compound I-103, 1-(1H-1,3-benzodiazol-2-yl)-4-[2-(4-fluorophenyl)ethyl]-3-(pyrazin-2-yl)-1H-pyrazol-5-ol]
HIV-1 NefNL4-3; [3]
  Kd: 25400 nM

## Cc1ccc(-c2nn(-c3nc4ccccc4[nH]3)c(O)c2CCc2ccc(F)cc2)cc1 [Compound I-104, 1-(1H-1,3-benzodiazol-2-yl)-4-[2-(4-fluorophenyl)ethyl]-3-(4-methylphenyl)-1H-pyrazol-5-ol]
HIV-1 NefNL4-3
  Kd: 2370 nM
HIV-1 NefNL4-3; [3]
  Kd: 2260 nM

## Oc1c(CCc2ccc(F)cc2)c(-c2ccccn2)nn1-c1nc2ccccc2[nH]1 [Compound I-109, 1-(1H-1,3-benzodiazol-2-yl)-4-[2-(4-fluorophenyl)ethyl]-3-(pyridin-2-yl)-1H-pyrazol-5-ol]
HIV-1 NefNL4-3
  Kd: 36.2 nM

## Oc1c(CCc2ccc(F)c(F)c2)c(-c2cnccn2)nn1-c1nc2ccccc2[nH]1 [Compound I-111, 1-(1H-1,3-benzodiazol-2-yl)-4-[2-(3,4-difluorophenyl)ethyl]-3-(pyrazin-2-yl)-1H-pyrazol-5-ol]
HIV-1 NefNL4-3; [2]
  Nef NL4-3 Binding, SPR 1:1 or 2-site fitting KD1: No Interaction

## Oc1c(CCc2ccc(F)c(Cl)c2)c(-c2cnccn2)nn1-c1nc2ccccc2[nH]1 [Compound I-112, 1-(1H-1,3-benzodiazol-2-yl)-4-[2-(3-chloro-4-fluorophenyl)ethyl]-3-(pyrazin-2-yl)-1H-pyrazol-5-ol]
HIV-1 NefNL4-3; [2]
  Nef NL4-3 Binding, SPR 1:1 or 2-site fitting KD1: No Interaction

## Oc1c(CCc2ccc(F)cc2)c(-c2ccncc2)nn1-c1nc2ccccc2[nH]1 [Compound I-113, 1-(1H-1,3-benzodiazol-2-yl)-4-[2-(4-fluorophenyl)ethyl]-3-(pyridin-4-yl)-1H-pyrazol-5-ol]
HIV-1 NefNL4-3
  Kd: 3350 nM

## C=CCc1c(-c2ccc(C(F)(F)F)cc2)nn(-c2nc3ccccc3[nH]2)c1O [Compound I-115, 1-(1H-1,3-benzodiazol-2-yl)-4-(prop-2-en-1-yl)-3-[4-(trifluoromethyl)phenyl]-1H-pyrazol-5-ol]
HIV-1 NefNL4-3
  Kd: 687 nM
HIV-1 NefNL4-3; [4]
  Kd: 5700 nM

## Oc1c(CCc2ccc(F)cc2)c(-c2cccc(Cl)c2)nn1-c1nc2ccccc2[nH]1 [Compound I-116, 1-(1H-1,3-benzodiazol-2-yl)-3-(3-chlorophenyl)-4-[2-(4-fluorophenyl)ethyl]-1H-pyrazol-5-ol]
HIV-1 NefNL4-3
  Kd: 2010 nM

## Oc1c(CCc2ccc(F)cc2)c(-c2ccccc2Cl)nn1-c1nc2ccccc2[nH]1 [Compound I-117, 1-(1H-1,3-benzodiazol-2-yl)-3-(2-chlorophenyl)-4-[2-(4-fluorophenyl)ethyl]-1H-pyrazol-5-ol]
HIV-1 NefNL4-3
  Kd: 1710 nM
HIV-1 NefNL4-3; [4]
  Kd: 24700 nM

## Oc1c(CCc2ccc(F)cc2)c(CCCc2ccc(F)cc2)nn1-c1nc2ccccc2[nH]1 [Compound I-120, 1-(1H-1,3-benzodiazol-2-yl)-4-[2-(4-fluorophenyl)ethyl]-3-[3-(4-fluorophenyl)propyl]-1H-pyrazol-5-ol]
TZM-bl cell line; human, 1 μM
  Percent Viability @ 1 μM (TZM-bl cells): 89.1%
HIV-1NL4-3
  inhibition at 1 µM: 70.1%

## O=C(OCc1ccccc1)N1CCC(c2nn(-c3nc4ccccc4[nH]3)c(O)c2Cc2ccc(F)c(F)c2)CC1 [Compound I-159, benzyl 4-[1-(1H-1,3-benzodiazol-2-yl)-4-[(3,4-difluorophenyl)methyl]-5-hydroxy-1H-pyrazol-3-yl]piperidine-1-carboxylate]
HIV-1 NefNL4-3
  Kd: 384 nM

## CC(C)(C)OC(=O)N1CCC(c2nn(-c3nc4ccccc4[nH]3)c(O)c2Cc2ccc(F)c(F)c2)CC1 [Compound I-203, tert-butyl 4-[1-(1H-1,3-benzodiazol-2-yl)-4-[(3,4-difluorophenyl)methyl]-5-hydroxy-1H-pyrazol-3-yl]piperidine-1-carboxylate]
HIV-1 NefNL4-3
  Kd: 821 nM
HIV-1 NefNL4-3; [4]
  Kd: 45400 nM

## Oc1c(CCc2ccc(F)cc2)c(C2CCCNC2)nn1-c1nc2ccccc2[nH]1 (stereo not drawn) [Compound I-502, 1-(1H-1,3-benzodiazol-2-yl)-4-[2-(4-fluorophenyl)ethyl]-3-(piperidin-3-yl)-1H-pyrazol-5-ol]
HIV-1 NefNL4-3; [5]
  Kd: 4510 nM
HIV-1 NefNL4-3; [6]
  Kd: 2450 nM

## Oc1c(CCc2ccc(F)cc2)c(C2CCNCC2)nn1-c1nc2ccccc2[nH]1 [Compound I-551, 1-(1H-1,3-benzodiazol-2-yl)-4-[2-(4-fluorophenyl)ethyl]-3-(piperidin-4-yl)-1H-pyrazol-5-ol]
HIV-1 NefNL4-3; [2]
  Nef NL4-3 Binding, SPR 1:1 or 2-site fitting KD1: No Interaction

## CC(C)(C)OC(=O)N1CCC(CCc2c(-c3cccc(S(C)(=O)=O)c3)nn(-c3cc(C(F)(F)F)n[nH]3)c2O)CC1 [Compound I-605]
TZM-bl cell line
  % Cell Viability: 100%
TZM-bl cell line; [7]
  Percent Viability @ 1 μM (TZM-bl cells): 106.0%

## CS(=O)(=O)c1ccc(-c2nn(-c3cc(C4CC4)n[nH]3)c(O)c2CCC2CCOCC2)cc1 [Compound I-607]
TZM-bl cell line
  Percent Viability @ 1 μM (TZM-bl cells): 100.0%

## CCOC(=O)c1ccc(CCc2c(-c3ccccc3)nn(-c3cc(C(F)(F)F)n[nH]3)c2O)cc1 [Compound I-612]
TZM-bl cell line
  % Cell Viability: 100%
TZM-bl cell line; [7]
  Percent Viability @ 1 μM (TZM-bl cells): 100.7%

## Oc1c(CCc2ccncc2)c(-c2ccc(F)cc2)nn1-c1cc(C(F)(F)F)n[nH]1 [Compound I-620]
TZM-bl cell line
  Percent Viability @ 1 μM (TZM-bl cells): 100.0%

## CC(=O)N1CCC(c2nn(-c3nc4ccccc4[nH]3)c(O)c2CCc2ccc(F)cc2)CC1 [Compound I-741, 1-{4-[1-(1H-1,3-benzodiazol-2-yl)-4-[2-(4-fluorophenyl)ethyl]-5-hydroxy-1H-pyrazol-3-yl]piperidin-1-yl}ethan-1-one]
HIV-1 NefNL4-3
  Kd: 3260 nM
HIV-1 NefNL4-3; [4]
  Kd: 10600 nM

## CS(=O)(=O)N1CCC(c2nn(-c3nc4ccccc4[nH]3)c(O)c2CCc2ccc(F)cc2)CC1 [Compound I-743, 1-(1H-1,3-benzodiazol-2-yl)-4-[2-(4-fluorophenyl)ethyl]-3-(1-methanesulfonylpiperidin-4-yl)-1H-pyrazol-5-ol]
HIV-1 NefNL4-3; [2]
  Nef NL4-3 Binding, SPR 1:1 or 2-site fitting KD1: No Interaction

## O=S(=O)(c1c(Cl)nc2sccn12)N1CCC(c2nn(-c3nc4ccccc4[nH]3)c(O)c2CCc2ccc(F)cc2)CC1 [Compound I-752, 1-(1H-1,3-benzodiazol-2-yl)-3-[1-({6-chloroimidazo[2,1-b][1,3]thiazol-5-yl}sulfonyl)piperidin-4-yl]-4-[2-(4-fluorophenyl)ethyl]-1H-pyrazol-5-ol]
TZM-bl cell line; human, 1 μM
  Percent Viability @ 1 μM (TZM-bl cells): 97.7%
HIV-1NL4-3
  inhibition at 1 µM: 14.7%

## CC(C)(C)OC(=O)N1CCCC(c2nn(-c3nc4ccccc4[nH]3)c(O)c2CCc2ccc(F)cc2)C1 (stereo not drawn) [Compound I-755, tert-butyl 3-[1-(1H-1,3-benzodiazol-2-yl)-4-[2-(4-fluorophenyl)ethyl]-5-hydroxy-1H-pyrazol-3-yl]piperidine-1-carboxylate]
HIV-1 NefNL4-3; [5]
  Kd: 296 nM
HIV-1 NefNL4-3; [6]
  Kd: 52.7 nM

## CN1CCC(c2nn(-c3nc4ccccc4[nH]3)c(O)c2CCc2ccc(F)cc2)CC1 [Compound I-801, 1-(1H-1,3-benzodiazol-2-yl)-4-[2-(4-fluorophenyl)ethyl]-3-(1-methylpiperidin-4-yl)-1H-pyrazol-5-ol]
HIV-1 NefNL4-3; [2]
  Nef NL4-3 Binding, SPR 1:1 or 2-site fitting KD1: No Interaction

## Oc1c(CCc2ccc(F)cc2)c(C2CCN(c3ncccn3)CC2)nn1-c1nc2ccccc2[nH]1 [Compound I-903, 1-(1H-1,3-benzodiazol-2-yl)-4-[2-(4-fluorophenyl)ethyl]-3-[1-(pyrimidin-2-yl)piperidin-4-yl]-1H-pyrazol-5-ol]
HIV-1 NefNL4-3; [6]
  Kd: 9980 nM

## Oc1c(Cc2ccc(F)c(F)c2)c(C2CCN(CC(F)(F)F)CC2)nn1-c1nc2ccccc2[nH]1 [Compound I-1001, 1-(1H-1,3-benzodiazol-2-yl)-4-[(3,4-difluorophenyl)methyl]-3-[1-(2,2,2-trifluoroethyl)piperidin-4-yl]-1H-pyrazol-5-ol]
HIV-1 NefNL4-3; Table 1, 2-site fit, second component, read-out: Nef NL4-3 Binding, SPR 1:1 or 2-site fitting KD2
  Kd: 500 nM
HIV-1 NefNL4-3; [6]
  Kd: 257 nM

## Fc1ccc(-c2c(CCc3ccccc3)cnn2-c2cc(C(F)(F)F)n[nH]2)cc1 [Compound I-1501]
TZM-bl cell line
  % Cell Viability: 97.9%

## Fc1ccc(-c2nn(-c3cc(C(F)(F)F)n[nH]3)cc2CCc2ccccc2)cc1 [Compound I-1501]
TZM-bl cell line; [7]
  Percent Viability @ 1 μM (TZM-bl cells): 102.5%
